Laboratory results taken from ChEMBL document CHEMBL3046837, “Synthesis of some novel amino and thiotetrazole purine derivatives and investigation of their antimicrobial activity and DNA interactions” (Med Chem Res, 2013).
Calls of active or inactive are those of the source. The rule behind the calls is not given here.

Assays:
Candida tropicalis = assay: Antifungal activity against Candida tropicalis ATCC 13803 after 72 hr by disk diffusion method; type: functional, organism-based
Candida albicans = assay: Antifungal activity against Candida albicans ATCC 10231 after 72 hr by disk diffusion method; type: functional, organism-based
Proteus vulgaris = assay: Antibacterial activity against Proteus vulgaris ATCC 8427 after 24 hr by disk diffusion method; type: functional, organism-based
Escherichia coli [1] = assay: Antibacterial activity against Escherichia coli ATCC 25922 after 24 hr by disk diffusion method; type: functional, organism-based
Escherichia coli [2] = assay: Antibacterial activity against Escherichia coli ATCC 35218 after 24 hr by disk diffusion method; type: functional, organism-based
Pseudomonas aeruginosa = assay: Antibacterial activity against Pseudomonas aeruginosa ATCC 27853 after 24 hr by disk diffusion method; type: functional, organism-based
Enterococcus faecalis = assay: Antibacterial activity against Enterococcus faecalis […] after 24 hr by disk diffusion method; type: functional, organism-based
Bacillus subtilis = assay: Antibacterial activity against Bacillus subtilis […] after 24 hr by disk diffusion method; type: functional, organism-based
Bacillus cereus = assay: Antibacterial activity against Bacillus cereus NRLL B-3008 after 24 hr by disk diffusion method; type: functional, organism-based
Staphylococcus aureus = assay: Antibacterial activity against Staphylococcus aureus ATCC 25923 after 24 hr by disk diffusion method; type: functional, organism-based
Escherichia coli [3] = assay: Binding affinity to Escherichia coli pBR322 DNA assessed as appearance of DNA fragments at high concentration after 24 hr by agarose gel electrophoresis
Escherichia coli [4] = assay: Binding affinity to Escherichia coli pBR322 DNA assessed as decrease in mobility of form 1 DNA at high concentration after 24 hr by agarose gel electrophoresis
Escherichia coli [5] = assay: Covalent binding to Escherichia coli pBR322 DNA adenine-adenine site assessed as inhibition of Hind3-mediated restriction digestion at 1250 uM by restriction endonuclease analysis
Escherichia coli [6] = assay: Covalent binding to Escherichia coli pBR322 DNA Guanine-guanine site assessed as inhibition of BamH1-mediated restriction digestion at 1250 uM by restriction endonuclease analysis
Escherichia coli [7] = assay: Covalent binding to Escherichia coli pBR322 DNA assessed as appearance of small DNA fragments at high concentration after 24 hr by agarose gel electrophoresis
Escherichia coli [8] = assay: Covalent binding to Escherichia coli pBR322 DNA assessed as increase in intensity of form 1 DNA at high concentration after 24 hr by agarose gel electrophoresis
Escherichia coli [9] = assay: Binding affinity to Escherichia coli pBR322 DNA assessed as change in mobility of form 2 DNA at low concentration after 24 hr by agarose gel electrophoresis
Escherichia coli [10] = assay: Binding affinity to Escherichia coli pBR322 DNA assessed as change in mobility of form 1 DNA at low concentration after 24 hr by agarose gel electrophoresis
Escherichia coli [11] = assay: Covalent binding to Escherichia coli pBR322 DNA assessed as increase in mobility of form 1 DNA at high concentration after 24 hr by agarose gel electrophoresis
Escherichia coli [12] = assay: Covalent binding to Escherichia coli pBR322 DNA assessed as disappearance of form 2 DNA at high concentration after 24 hr by agarose gel electrophoresis

SMILES: c1nc(Nc2nnn[nH]2)c2ncn(CC3CCC3)c2n1
- Activity (Candida tropicalis): inactive
- Activity (Candida albicans): inactive
- Activity (Proteus vulgaris): inactive
- Activity (Escherichia coli [1]): inactive
- Activity (Escherichia coli [2]): inactive
- Activity (Pseudomonas aeruginosa): inactive
- Activity (Enterococcus faecalis): inactive
- Activity (Bacillus subtilis): inactive
- Activity (Bacillus cereus): inactive
- Activity (Staphylococcus aureus): inactive
- Activity (Escherichia coli [3]): Active
- Activity (Escherichia coli [4]): Active
- Activity (Escherichia coli [5]): Active
- Activity (Escherichia coli [6]): inactive

SMILES: CCCCCCn1cnc2c(Nc3nnn[nH]3)ncnc21
- Activity (Escherichia coli [7]): Active
- Activity (Escherichia coli [8]): Active
- Activity (Escherichia coli [9]): inactive
- Activity (Escherichia coli [10]): inactive
- Activity (Candida tropicalis): inactive
- Activity (Candida albicans): inactive
- Activity (Proteus vulgaris): inactive
- Activity (Escherichia coli [1]): inactive
- Activity (Escherichia coli [2]): inactive
- Activity (Pseudomonas aeruginosa): inactive
- Activity (Enterococcus faecalis): inactive
- Activity (Bacillus subtilis): inactive
- Activity (Bacillus cereus): inactive
- Activity (Staphylococcus aureus): inactive
- Activity (Escherichia coli [5]): Active
- Activity (Escherichia coli [6]): inactive

SMILES: CC(C)n1cnc2c(Sc3nnnn3C)ncnc21
- Activity (Candida tropicalis): inactive
- Activity (Candida albicans): inactive
- Activity (Proteus vulgaris): inactive
- Activity (Escherichia coli [1]): inactive
- Activity (Escherichia coli [2]): inactive
- Activity (Pseudomonas aeruginosa): inactive
- Activity (Enterococcus faecalis): inactive
- Activity (Bacillus subtilis): inactive
- Activity (Bacillus cereus): inactive
- Activity (Staphylococcus aureus): inactive
- Activity (Escherichia coli [3]): Active
- Activity (Escherichia coli [4]): Active
- Activity (Escherichia coli [5]): Active
- Activity (Escherichia coli [6]): Active

SMILES: c1nc(Nc2nnn[nH]2)c2nc[nH]c2n1
- Activity (Escherichia coli [7]): Active
- Activity (Escherichia coli [8]): Active
- Activity (Escherichia coli [9]): inactive
- Activity (Escherichia coli [10]): inactive
- Activity (Candida tropicalis): inactive
- Activity (Candida albicans): inactive
- Activity (Proteus vulgaris): inactive
- Activity (Escherichia coli [1]): inactive
- Activity (Escherichia coli [2]): inactive
- Activity (Pseudomonas aeruginosa): inactive
- Activity (Enterococcus faecalis): inactive
- Activity (Bacillus subtilis): inactive
- Activity (Bacillus cereus): inactive
- Activity (Staphylococcus aureus): inactive
- Activity (Escherichia coli [5]): Active
- Activity (Escherichia coli [6]): inactive

SMILES: Cn1nnnc1Sc1ncnc2c1ncn2C
- Activity (Candida tropicalis): inactive
- Activity (Candida albicans): inactive
- Activity (Proteus vulgaris): inactive
- Activity (Escherichia coli [1]): inactive
- Activity (Escherichia coli [2]): inactive
- Activity (Pseudomonas aeruginosa): inactive
- Activity (Enterococcus faecalis): inactive
- Activity (Bacillus subtilis): inactive
- Activity (Bacillus cereus): inactive
- Activity (Staphylococcus aureus): inactive
- Activity (Escherichia coli [11]): Active
- Activity (Escherichia coli [5]): Active
- Activity (Escherichia coli [6]): Active

SMILES: Cn1nnnc1Sc1ncnc2c1ncn2CC1CCC1
- Activity (Candida tropicalis): inactive
- Activity (Candida albicans): inactive
- Activity (Proteus vulgaris): inactive
- Activity (Escherichia coli [1]): inactive
- Activity (Escherichia coli [2]): inactive
- Activity (Pseudomonas aeruginosa): inactive
- Activity (Enterococcus faecalis): inactive
- Activity (Bacillus subtilis): inactive
- Activity (Bacillus cereus): inactive
- Activity (Staphylococcus aureus): inactive
- Activity (Escherichia coli [12]): Active
- Activity (Escherichia coli [3]): Active
- Activity (Escherichia coli [5]): Active
- Activity (Escherichia coli [6]): Active

SMILES: CCCn1cnc2c(Sc3nnnn3C)ncnc21
- Activity (Candida tropicalis): inactive
- Activity (Candida albicans): inactive
- Activity (Proteus vulgaris): inactive
- Activity (Escherichia coli [1]): inactive
- Activity (Escherichia coli [2]): inactive
- Activity (Pseudomonas aeruginosa): inactive
- Activity (Enterococcus faecalis): inactive
- Activity (Bacillus subtilis): inactive
- Activity (Bacillus cereus): inactive
- Activity (Staphylococcus aureus): inactive
- Activity (Escherichia coli [3]): Active
- Activity (Escherichia coli [4]): Active
- Activity (Escherichia coli [5]): Active
- Activity (Escherichia coli [6]): Active

SMILES: Cn1nnnc1Sc1ncnc2[nH]cnc12
- Activity (Candida tropicalis): inactive
- Activity (Candida albicans): inactive
- Activity (Proteus vulgaris): inactive
- Activity (Escherichia coli [1]): inactive
- Activity (Escherichia coli [2]): inactive
- Activity (Pseudomonas aeruginosa): inactive
- Activity (Enterococcus faecalis): inactive
- Activity (Bacillus subtilis): inactive
- Activity (Bacillus cereus): inactive
- Activity (Staphylococcus aureus): inactive
- Activity (Escherichia coli [4]): Active
- Activity (Escherichia coli [5]): Active
- Activity (Escherichia coli [6]): Active

SMILES: c1ccc(Cn2cnc3c(Nc4nnn[nH]4)ncnc32)cc1
- Activity (Candida tropicalis): inactive
- Activity (Candida albicans): inactive
- Activity (Proteus vulgaris): inactive
- Activity (Escherichia coli [1]): inactive
- Activity (Escherichia coli [2]): inactive
- Activity (Pseudomonas aeruginosa): inactive
- Activity (Enterococcus faecalis): inactive
- Activity (Bacillus subtilis): inactive
- Activity (Bacillus cereus): inactive
- Activity (Staphylococcus aureus): inactive
- Activity (Escherichia coli [4]): Active
- Activity (Escherichia coli [5]): Active
- Activity (Escherichia coli [6]): inactive

SMILES: CCn1cnc2c(Sc3nnnn3C)ncnc21
- Activity (Candida tropicalis): inactive
- Activity (Candida albicans): inactive
- Activity (Proteus vulgaris): inactive
- Activity (Escherichia coli [1]): inactive
- Activity (Escherichia coli [2]): inactive
- Activity (Pseudomonas aeruginosa): inactive
- Activity (Enterococcus faecalis): inactive
- Activity (Bacillus subtilis): inactive
- Activity (Bacillus cereus): inactive
- Activity (Staphylococcus aureus): inactive
- Activity (Escherichia coli [12]): Active
- Activity (Escherichia coli [11]): Active
- Activity (Escherichia coli [5]): Active
- Activity (Escherichia coli [6]): Active

SMILES: Cn1nnnc1Sc1ncnc2c1ncn2Cc1ccccc1
- Activity (Candida tropicalis): inactive
- Activity (Candida albicans): inactive
- Activity (Proteus vulgaris): inactive
- Activity (Escherichia coli [1]): inactive
- Activity (Escherichia coli [2]): inactive
- Activity (Pseudomonas aeruginosa): inactive
- Activity (Enterococcus faecalis): inactive
- Activity (Bacillus subtilis): inactive
- Activity (Bacillus cereus): inactive
- Activity (Staphylococcus aureus): inactive
- Activity (Escherichia coli [12]): Active
- Activity (Escherichia coli [3]): Active
- Activity (Escherichia coli [5]): Active
- Activity (Escherichia coli [6]): Active

SMILES: CCn1cnc2c(Nc3nnn[nH]3)ncnc21
- Activity (Escherichia coli [7]): Active
- Activity (Escherichia coli [8]): Active
- Activity (Escherichia coli [9]): inactive
- Activity (Escherichia coli [10]): inactive
- Activity (Candida tropicalis): inactive
- Activity (Candida albicans): inactive
- Activity (Proteus vulgaris): inactive
- Activity (Escherichia coli [1]): inactive
- Activity (Escherichia coli [2]): inactive
- Activity (Pseudomonas aeruginosa): inactive
- Activity (Enterococcus faecalis): inactive
- Activity (Bacillus subtilis): inactive
- Activity (Bacillus cereus): inactive
- Activity (Staphylococcus aureus): inactive
- Activity (Escherichia coli [5]): Active
- Activity (Escherichia coli [6]): inactive

SMILES: CCOC(=O)Cn1cnc2c(Nc3nnn[nH]3)ncnc21
- Activity (Candida tropicalis): inactive
- Activity (Candida albicans): inactive
- Activity (Proteus vulgaris): inactive
- Activity (Escherichia coli [1]): inactive
- Activity (Escherichia coli [2]): inactive
- Activity (Pseudomonas aeruginosa): inactive
- Activity (Enterococcus faecalis): inactive
- Activity (Bacillus subtilis): inactive
- Activity (Bacillus cereus): inactive
- Activity (Staphylococcus aureus): inactive
- Activity (Escherichia coli [3]): Active
- Activity (Escherichia coli [4]): Active
- Activity (Escherichia coli [5]): Active
- Activity (Escherichia coli [6]): inactive

SMILES: Cn1cnc2c(Nc3nnn[nH]3)ncnc21
- Activity (Escherichia coli [7]): Active
- Activity (Escherichia coli [8]): Active
- Activity (Escherichia coli [9]): inactive
- Activity (Escherichia coli [10]): inactive
- Activity (Candida tropicalis): inactive
- Activity (Candida albicans): inactive
- Activity (Proteus vulgaris): inactive
- Activity (Escherichia coli [1]): inactive
- Activity (Escherichia coli [2]): inactive
- Activity (Pseudomonas aeruginosa): inactive
- Activity (Enterococcus faecalis): inactive
- Activity (Bacillus subtilis): inactive
- Activity (Bacillus cereus): inactive
- Activity (Staphylococcus aureus): inactive
- Activity (Escherichia coli [5]): Active
- Activity (Escherichia coli [6]): inactive

SMILES: CC(C)n1cnc2c(Nc3nnn[nH]3)ncnc21
- Activity (Escherichia coli [7]): Active
- Activity (Escherichia coli [8]): Active
- Activity (Escherichia coli [9]): inactive
- Activity (Escherichia coli [10]): inactive
- Activity (Candida tropicalis): inactive
- Activity (Candida albicans): inactive
- Activity (Proteus vulgaris): inactive
- Activity (Escherichia coli [1]): inactive
- Activity (Escherichia coli [2]): inactive
- Activity (Pseudomonas aeruginosa): inactive
- Activity (Enterococcus faecalis): inactive
- Activity (Bacillus subtilis): inactive
- Activity (Bacillus cereus): inactive
- Activity (Staphylococcus aureus): inactive
- Activity (Escherichia coli [5]): Active
- Activity (Escherichia coli [6]): inactive

SMILES: CCOC(=O)Cn1cnc2c(Sc3nnnn3C)ncnc21
- Activity (Candida tropicalis): inactive
- Activity (Candida albicans): inactive
- Activity (Proteus vulgaris): inactive
- Activity (Escherichia coli [1]): inactive
- Activity (Escherichia coli [2]): inactive
- Activity (Pseudomonas aeruginosa): inactive
- Activity (Enterococcus faecalis): inactive
- Activity (Bacillus subtilis): inactive
- Activity (Bacillus cereus): inactive
- Activity (Staphylococcus aureus): inactive
- Activity (Escherichia coli [12]): Active
- Activity (Escherichia coli [3]): Active
- Activity (Escherichia coli [5]): Active
- Activity (Escherichia coli [6]): Active
